# Active and inactive are the calls of the source. The rule behind the calls is not given here.
# Assays:
# [1] = Solubility of compound in water by HPLC analysis; format: physicochemical
# [2] = Stability of compound in PBS buffer at pH 7.4 assessed as half life; format: physicochemical
# [3] = Stability in mouse plasma assessed as half life measured upto 24 hrs by HPLC analysis; format: ADME, cell-free
# [4] = Stability in human plasma assessed as half life measured upto 24 hrs by HPLC analysis; format: ADME, cell-free
# [5] = Cytotoxicity in human HLF upto 0.625 uM; format: toxicity, cell-based
# HLF [6] = assay: Upregulation of ADAM 10 expression in TGF-beta1-induced human HLF at 5 to 20 nM; format: functional, cell-based; conditions: dose 5-20 nM
# HLF [7] = assay: Inhibition of sEphrin-B2 expression level in human HLF at 20 nM; format: functional, cell-based
# HLF [8] = assay: Inhibition of TGF-betal induced alpha-SMA production in human HLF at 5 to 20 nM incubated for 2 hrs by DAPI staining based laser scanning confocal microscopic analysis; format: functional, cell-based; conditions: dose 5-20 nM
# [9] = AUC (0 to infinity) in Kunming mouse at 1 mg/kg, iv measured upto 48 hrs by LC/MS analysis; format: ADME, organism-based; conditions: in vivo
# [10] = Half life in Kunming mouse at 1 mg/kg, iv measured upto 48 hrs by LC/MS analysis; format: ADME, organism-based; conditions: in vivo
# [11] = MRT (0 to t) in Kunming mouse at 1 mg/kg, iv measured upto 48 hrs by LC/MS analysis; format: ADME, organism-based; conditions: in vivo
# [12] = MRT(0 to infinity) in Kunming mouse at 1 mg/kg, iv measured upto 48 hrs by LC/MS analysis; format: ADME, organism-based; conditions: in vivo
# [13] = Volume of distribution in Kunming mouse at 1 mg/kg, iv measured upto 48 hrs by LC/MS analysis; format: ADME, organism-based; conditions: in vivo
# [14] = Clearance in Kunming mouse at 1 mg/kg, iv measured upto 48 hrs by LC/MS analysis; format: ADME, organism-based; conditions: in vivo
# [15] = Prodrug conversion of the compound in phosphate buffer saline at pH 6.5 assessed as (6aS,7aS,8R,8aR,9aS,9bS,10aS,10bS)-8-hydroxy-8a-isopropyl-10b-methyl-2,5,5b,6,6a,8,8a,9a,9b,10b-decahydrotris(oxireno)[2',3':4b,5;2'',3'':6,7;2''',3''':8a,9]phenanthro[1,2-c]furan-3(1H)-one formation by measuring half life; format: ADME
# [16] = Prodrug conversion of the compound in phosphate buffer saline at pH 7.4 assessed as (6aS,7aS,8R,8aR,9aS,9bS,10aS,10bS)-8-hydroxy-8a-isopropyl-10b-methyl-2,5,5b,6,6a,8,8a,9a,9b,10b-decahydrotris(oxireno)[2',3':4b,5;2'',3'':6,7;2''',3''':8a,9]phenanthro[1,2-c]furan-3(1H)-one formation by measuring half life; format: ADME
# [17] = Prodrug conversion of the compound in phosphate buffer saline at pH 8 assessed as (6aS,7aS,8R,8aR,9aS,9bS,10aS,10bS)-8-hydroxy-8a-isopropyl-10b-methyl-2,5,5b,6,6a,8,8a,9a,9b,10b-decahydrotris(oxireno)[2',3':4b,5;2'',3'':6,7;2''',3''':8a,9]phenanthro[1,2-c]furan-3(1H)-one formation by measuring half life; format: ADME
# Mus musculus [18] = assay: Anti-fibrotic activity in bleomycin-induced pulmonary fibrosis C57BL/6 mouse model assessed as increase in body weight at 0.33 mg/kg, ip pretreated with bleomycin for 5 days and followed by compound administration for 14 days; format: functional, organism-based; conditions: time 14.0 day
# Mus musculus [19] = assay: Anti-fibrotic activity in bleomycin-induced pulmonary fibrosis C57BL/6 mouse model assessed as decrease in lung index at 0.33 mg/kg, ip pretreated with bleomycin for 5 days and followed by compound administration for 15 days; format: functional, organism-based; conditions: time 15.0 day
# [20] = Toxicity in C57BL/6 mouse assessed as change in ALT level at 0.33 mg/kg, ip measured after 15 days; format: organism-based; conditions: in vivo, 360 h, time 15 day
# [21] = Toxicity in C57BL/6 mouse assessed as change in AST level at 0.33 mg/kg, ip measured after 15 days; format: organism-based; conditions: in vivo, 360 h, time 15 day
# [22] = Toxicity in C57BL/6 mouse assessed as change in creatinine level at 0.33 mg/kg, ip measured after 15 days; format: organism-based; conditions: in vivo, 360 h, time 15 day
# [23] = Toxicity in C57BL/6 mouse assessed as change in BUN level at 0.33 mg/kg, ip measured after 15 days; format: organism-based; conditions: in vivo, 360 h, time 15 day
# [24] = Toxicity in C57BL/6 mouse assessed as pathological changes in liver at 0.33 mg/kg, ip measured after 15 days; format: organism-based; conditions: in vivo, 360 h, time 15 day
# [25] = Toxicity in C57BL/6 mouse assessed as pathological changes in kidney at 0.33 mg/kg, ip measured after 15 days; format: organism-based; conditions: in vivo, 360 h, time 15 day
# Mus musculus [26] = assay: Anti-fibrotic activity in bleomycin-induced pulmonary fibrosis C57BL/6 mouse model assessed as infiltrated interstitial matrix in lung at 0.33 mg/kg, ip pretreated with bleomycin for 5 days and followed by compound administration for 15 days by H and E staining based analysis; format: functional, organism-based; conditions: time 15.0 day
# Mus musculus [27] = assay: Anti-fibrotic activity in bleomycin-induced pulmonary fibrosis C57BL/6 mouse model assessed as infiltrated interstitial matrix in lung at 60 mg/kg, po pretreated with bleomycin for 5 days and followed by compound administration for 15 days by H and E staining based analysis; format: functional, organism-based; conditions: time 15.0 day
# Mus musculus [28] = assay: Anti-fibrotic activity in bleomycin-induced pulmonary fibrosis C57BL/6 mouse model assessed as appearance of red collagen deposits in lung at 0.33 mg/kg, ip pretreated with bleomycin for 5 days and followed by compound administration for 15 days by H and E staining based analysis; format: functional, organism-based; conditions: time 15.0 day
# Mus musculus [29] = assay: Anti-fibrotic activity in bleomycin-induced pulmonary fibrosis C57BL/6 mouse model assessed as attenuation of collagen accumulation in lung at 0.33 mg/kg, ip pretreated with bleomycin for 5 days and followed by compound administration for 15 days by Masson staining based analysis; format: functional, organism-based; conditions: time 15.0 day
# Mus musculus [30] = assay: Anti-fibrotic activity in bleomycin-induced pulmonary fibrosis C57BL/6 mouse model at 0.66 mg/kg, ip pretreated with bleomycin for 5 days and followed by compound administration for 15 days; format: functional, organism-based; conditions: time 15.0 day
# Mus musculus [31] = assay: Anti-fibrotic activity in bleomycin-induced pulmonary fibrosis C57BL/6 mouse model assessed as decrease in myofibroblast by measuring alpha-SMA level at 0.33 to 0.66 mg/kg, ip pretreated with bleomycin for 5 days and followed by compound administration for 15 days; format: functional, organism-based; conditions: dose 0.33-0.66 mg/kg, time 15.0 day
# Mus musculus [32] = assay: Anti-fibrotic activity in bleomycin-induced pulmonary fibrosis C57BL/6 mouse model assessed as decrease in hydroxyproline level in lung at 0.33 to 0.66 mg/kg, ip pretreated with bleomycin for 5 days and followed by compound administration for 15 days; format: functional, organism-based; conditions: dose 0.33-0.66 mg/kg, time 15.0 day
# Mus musculus [33] = assay: Anti-fibrotic activity in bleomycin-induced pulmonary fibrosis C57BL/6 mouse model assessed as decrease in hydroxyproline level in lung at 0.33 to 0.66 mg/kg, ip pretreated with bleomycin from day 1 and followed by compound administration for 15 days; format: functional, organism-based; conditions: dose 0.33-0.66 mg/kg, time 15.0 day
# Mus musculus [34] = assay: Anti-fibrotic activity in bleomycin-induced pulmonary fibrosis C57BL/6 mouse model assessed as decrease in TGF-beta1 level in BALF at 0.66 mg/kg, ip pretreated with bleomycin for 5 days and followed by compound administration for 15 days by ELISA analysis; format: functional, organism-based; conditions: time 15.0 day
# Mus musculus [35] = assay: Anti-fibrotic activity in bleomycin-induced pulmonary fibrosis C57BL/6 mouse model assessed as decrease in TGF-beta1 level in BALF at 0.66 mg/kg, ip pretreated with bleomycin from day 1 and followed by compound administration for 15 days by ELISA analysis; format: functional, organism-based; conditions: time 15.0 day
# Mus musculus [36] = assay: Anti-fibrotic activity in bleomycin-induced pulmonary fibrosis C57BL/6 mouse model assessed as downregulation of ADAM 10 level in BALF at 0.66 mg/kg, ip pretreated with bleomycin for 5 days and followed by compound administration for 15 days by ELISA analysis; format: functional, organism-based; conditions: time 15.0 day
# Mus musculus [37] = assay: Anti-fibrotic activity in bleomycin-induced pulmonary fibrosis C57BL/6 mouse model assessed as downregulation of sEphrin-B2 level in BALF at 0.33 to 0.66 mg/kg, ip pretreated with bleomycin for 5 days and followed by compound administration for 15 days by ELISA analysis; format: functional, organism-based; conditions: dose 0.33-0.66 mg/kg, time 15.0 day
# Mus musculus [38] = assay: Anti-fibrotic activity in bleomycin-induced pulmonary fibrosis C57BL/6 mouse model assessed as increase in body weight at 60 mg/kg, po pretreated with bleomycin for 5 days and followed by compound administration for 14 days; format: functional, organism-based; conditions: time 14.0 day
# Mus musculus [39] = assay: Anti-fibrotic activity in bleomycin-induced pulmonary fibrosis C57BL/6 mouse model assessed as decrease in lung index at 60 mg/kg, po pretreated with bleomycin for 5 days and followed by compound administration for 15 days; format: functional, organism-based; conditions: time 15.0 day
# Mus musculus [40] = assay: Anti-fibrotic activity in bleomycin-induced pulmonary fibrosis C57BL/6 mouse model assessed as appearance of red collagen deposits in lung at 60 mg/kg, po pretreated with bleomycin for 5 days and followed by compound administration for 15 days by H and E staining based analysis; format: functional, organism-based; conditions: time 15.0 day
# Mus musculus [41] = assay: Anti-fibrotic activity in bleomycin-induced pulmonary fibrosis C57BL/6 mouse model assessed as decrease in myofibroblast by measuring alpha-SMA level at 60 mg/kg, po pretreated with bleomycin for 5 days and followed by compound administration for 15 days; format: functional, organism-based; conditions: time 15.0 day
# Mus musculus [42] = assay: Anti-fibrotic activity in bleomycin-induced pulmonary fibrosis C57BL/6 mouse model assessed as decrease in hydroxyproline level in lung at 60 mg/kg, po pretreated with bleomycin for 5 days and followed by compound administration for 15 days; format: functional, organism-based; conditions: time 15.0 day
# Mus musculus [43] = assay: Anti-fibrotic activity in bleomycin-induced pulmonary fibrosis C57BL/6 mouse model assessed as decrease in hydroxyproline level in lung at 60 mg/kg, po pretreated with bleomycin from day 1 and followed by compound administration for 15 days; format: functional, organism-based; conditions: time 15.0 day
compound,measurement,setting,value
CC(C)[C@]12O[C@H]1[C@@H]1O[C@]13[C@]1(O[C@H]1C[C@H]1C4=C(CC[C@@]13C)C(=O)OC4)[C@@H]2OC(=O)NC1CCCCC1N (some centres not stated),solubility,[1],6.96 mg/mL
same,half-life,[2],1.85 h
same,half-life,[3],1.62 h
same,half-life,[4],1.69 h
CNCCN(C)C(=O)O[C@@H]1[C@@]2(C(C)C)O[C@H]2[C@@H]2O[C@]23[C@]12O[C@H]2C[C@H]1C2=C(CC[C@@]13C)C(=O)OC2,solubility,[1],30.8 mg/mL
same,Activity,[5],Non-Toxic
same,Activity,HLF [6],Active
same,inhibition,HLF [7],Active
same,inhibition,HLF [8],Active
same,AUC(0-inf),[9],1100 ng·h/mL
same,t1/2,[10],7.72 h
same,MRT last at 48 h,[11],11.5 h
same,MRT inf,[12],14.8 h
same,Vd,[13],0.119 L/kg
same,CL,[14],15.2 mL/min/kg
same,half-life,[2],17.7 h
same,half-life,[3],17 h
same,half-life,[4],16.4 h
same,t1/2,[15],81.7 h
same,t1/2,[16],17.7 h
same,t1/2,[17],4.52 h
same,Activity,Mus musculus [18],Active
same,Activity,Mus musculus [19],Active
same,Activity,[20],Non-Toxic
same,Activity,[21],Non-Toxic
same,Activity,[22],Non-Toxic
same,Activity,[23],Non-Toxic
same,Activity,[24],Non-Toxic
same,Activity,[25],Non-Toxic
same,Activity,Mus musculus [26],Active
same,Activity,Mus musculus [27],Active
same,Activity,Mus musculus [28],Active
same,Activity,Mus musculus [29],Active
same,Activity,Mus musculus [30],Active
same,Activity,Mus musculus [31],Active
same,Activity,Mus musculus [32],Active
same,Activity,Mus musculus [33],Active
same,Activity,Mus musculus [34],Active
same,Activity,Mus musculus [35],Active
same,Activity,Mus musculus [36],Active
same,Activity,Mus musculus [37],Active
CC(C)[C@]12O[C@H]1[C@@H]1O[C@]13[C@]1(O[C@H]1C[C@H]1C4=C(CC[C@@]13C)C(=O)OC4)[C@@H]2OC(=O)NCC1CCCN1 (some centres not stated),solubility,[1],8.99 mg/mL
same,half-life,[2],2.46 h
same,half-life,[3],1.79 h
same,half-life,[4],1.45 h
CC(C)[C@]12O[C@H]1[C@@H]1O[C@]13[C@]1(O[C@H]1C[C@H]1C4=C(CC[C@@]13C)C(=O)OC4)[C@@H]2OCOP(=O)([O-])[O-].[Na+].[Na+] [MINNELIDE],solubility,[1],93.3 mg/mL
CC(C)[C@]12O[C@H]1[C@@H]1O[C@]13[C@]1(O[C@H]1C[C@H]1C4=C(CC[C@@]13C)C(=O)OC4)[C@@H]2OC(=O)CCC(=O)[O-].[Na+] [OMTRIPTOLIDE SODIUM],solubility,[1],1.39 mg/mL
COC(=O)c1ccc2c(c1)NC(=O)/C2=C(\Nc1ccc(N(C)C(=O)CN2CCN(C)CC2)cc1)c1ccccc1,Activity,Mus musculus [38],Active
same,Activity,Mus musculus [39],Active
same,Activity,Mus musculus [40],Active
same,Activity,Mus musculus [41],Active
same,Activity,Mus musculus [42],Active
same,Activity,Mus musculus [43],Active
CC(C)[C@]12O[C@H]1[C@@H]1O[C@]13[C@]1(O[C@H]1C[C@H]1C4=C(CC[C@@]13C)C(=O)OC4)[C@@H]2OC(=O)NCCN,solubility,[1],12.5 mg/mL
same,half-life,[2],25.2 h
same,half-life,[3],27.3 h
same,half-life,[4],24.5 h

# Reference: ChEMBL document CHEMBL6127048, “Water-soluble and predictable-release triptolide prodrugs block bleomycin-induced pulmonary fibrosis in mice” (Eur J Med Chem, 2024)
